# Reference: US7205306B2, “Substituted pyrazinones, pyridines and pyrimidines as corticotropin releasing factor ligands” (Bristol-Myers Squibb Pharma Company, priority 2001, dated 2007)
# Counter-ions that a name gives are not always drawn.
row,Structure (SMILES),melting point
1,"CCC(C)n1cc(Cl)nc(N2CCc3cc(OC)cc(Br)c32)c1=O (centres unmarked) (as salt: hydrochloride) [Example 502, 3-(7-Bromo-5-methoxy-2,3-dihydro-1H-indol-1-yl)-5-chloro-1-(1-methylpropyl)-2(1H)-pyrazinone]",155 to 157 °C
2,"CCC(CC)n1cc(Br)nc(N2CCc3cc(OC)cc(Br)c32)c1=O (as salt: hydrochloride) [Example 505, 5-Bromo-3-(7-bromo-5-methoxy-2,3-dihydro-1H-indol-1-yl)-1-(1-ethylpropyl)-2(1H)-pyrazinone]",133 to 135 °C
3,"CCC(CC)n1cc(Br)nc(N2CCc3cc(OC)cc(C)c32)c1=O (as salt: hydrochloride) [Example 506, 5-Bromo-1-(1-ethylpropyl)-3-(5-methoxy-7-methyl-2,3-dihydro-1H-indol-1-yl)-2(1H)-pyrazinone]",152 to 154 °C
4,"CC[C@H](C1CC1)n1cc(Cl)nc(N2CCc3cc(OC)cc(Br)c32)c1=O (as salt: hydrochloride) [Example 509, 3-(7-Bromo-5-methoxy-2,3-dihydro-1H-indol-1-yl)-5-chloro-1-[(1R)-1-cyclopropylpropyl]-2(1H)-pyrazinone]",138 to 140 °C
5,"CC[C@H](C1CC1)n1cc(Cl)nc(N2CCc3cc(OC)cc(C)c32)c1=O (as salt: hydrochloride) [Example 510, 5-Chloro-1-[(1R)-1-cyclopropylpropyl]-3-(5-methoxy-7-methyl-2,3-dihydro-1H-indol-1-yl)-2(1H)-pyrazinone]",160 to 162 °C
6,"CC[C@H](COC)n1cc(Br)nc(N2CCc3cc(OC)cc(Br)c32)c1=O (as salt: hydrochloride) [Example 525, 5-Bromo-3-(7-bromo-5-methoxy-2,3-dihydro-1H-indol-1-yl)-1-[(1R)-1-(methoxymethyl)propyl]-2(1H)-pyrazinone]",122 to 123 °C
7,"CC[C@H](COC)n1cc(Br)nc(N2CCc3cc(OC)cc(C)c32)c1=O (as salt: hydrochloride) [Example 526, 5-Bromo-3-(5-methoxy-7-methyl-2,3-dihydro-1H-indol-1-yl)-1-[(1R)-1-(methoxymethyl)propyl]-2(1H)-pyrazinone]",116 to 118 °C
8,"CC[C@@H](COC)n1cc(Cl)nc(N2CCc3cc(OC)cc(Br)c32)c1=O (as salt: hydrochloride) [Example 529, 3-(7-Bromo-5-methoxy-2,3-dihydro-1H-indol-1-yl)-5-chloro-1-[(1S)-1-(methoxymethyl)propyl]-2(1H)-pyrazinone]",100 to 102 °C
9,"COc1cc(C)c2c(c1)CCN2c1nc(Cl)cn(CCSC)c1=O (as salt: hydrochloride) [Example 534, 5-Chloro-3-(5-methoxy-7-methyl-2,3-dihydro-1H-indol-1-yl)-1-[2-(methylthio)ethyl]-2(1H)-pyrazinone]",111 to 113 °C
10,"CC[C@H](COC)n1cc(Cl)nc(N2CCc3cc(OC)cc(C)c32)c1=O (as salt: hydrochloride) [Example 545, 5-Chloro-3-(5-methoxy-7-methyl-2,3-dihydro-1H-indol-1-yl)-1-[(1R)-1-(methoxymethyl)propyl]-2(1H)-pyrazinone]",62 to 64 °C
11,"CC[C@@H](COC)n1cc(Br)nc(N2CCc3cc(OC)cc(C)c32)c1=O (as salt: hydrochloride) [Example 549, 5-Bromo-3-(5-methoxy-7-methyl-2,3-dihydro-1H-indol-1-yl)-1-[(1S)-1-(methoxymethyl)propyl]-2(1H)-pyrazinone]",115 to 117 °C

# Results, then the compound that gave them:
row,melting point,Structure (SMILES)
1,164 to 165 °C,"CCC(CC)n1cc(Cl)nc(N2CCc3cc(OC)cc(C)c32)c1=O (as salt: hydrochloride) [Example 431, 5-Chloro-1-(1-ethylpropyl)-3-(5-methoxy-7-methyl-2,3-dihydro-1H-indol-1-yl)-2(1H)-pyrazinone]"
2,130 to 132 °C,"CCC(CC)n1cc(Cl)nc(N2CCc3cc(OC)cc(Br)c32)c1=O (as salt: hydrochloride) [Example 441, 3-(7-Bromo-5-methoxy-2,3-dihydro-1H-indol-1-yl)-5-chloro-1-(1-ethylpropyl)-2(1H)-pyrazinone]"
3,138 to 140 °C,"CCC(CC)n1cc(C)nc(N2CCc3cc(OC)cc(C)c32)c1=O (as salt: hydrochloride) [Example 481, 3-(5-Methoxy-7-methyl-2,3-dihydro-1H-indol-1-yl)-1-(1-ethylpropyl)-5-methyl-2(1H)-pyrazinone]"
4,143 to 145 °C,"CCC(C)n1cc(Cl)nc(N2CCc3cc(OC)cc(Cl)c32)c1=O (centres unmarked) (as salt: hydrochloride) [Example 501, 5-Chloro-3-(7-chloro-5-methoxy-2,3-dihydro-1H-indol-1-yl)-1-(1-methylpropyl)-2(1H)-pyrazinone]"
5,176 to 178 °C,"CCC(C)n1cc(Cl)nc(N2CCc3cc(OC)cc(C)c32)c1=O (centres unmarked) (as salt: hydrochloride) [Example 503, 5-Chloro-3-(5-methoxy-7-methyl-2,3-dihydro-1H-indol-1-yl)-1-(1-methylpropyl)-2(1H)-pyrazinone]"
6,118 to 120 °C,"CC[C@H](C1CC1)n1cc(Cl)nc(N2CCc3cc(OC)cc(Cl)c32)c1=O (as salt: hydrochloride) [Example 508, 5-Chloro-3-(7-chloro-5-methoxy-2,3-dihydro-1H-indol-1-yl)-1-[(1R)-1-cyclopropylpropyl]-2(1H)-pyrazinone]"
7,128 to 130 °C,"CC[C@@H](C1CC1)n1cc(Cl)nc(N2CCc3cc(OC)cc(Cl)c32)c1=O (as salt: hydrochloride) [Example 514, 5-Chloro-3-(7-chloro-5-methoxy-2,3-dihydro-1H-indol-1-yl)-1-[(1S)-1-cyclopropylpropyl]-2(1H)-pyrazinone]"
8,138 to 140 °C,"CC[C@@H](C1CC1)n1cc(Cl)nc(N2CCc3cc(OC)cc(Br)c32)c1=O (as salt: hydrochloride) [Example 515, 3-(7-Bromo-5-methoxy-2,3-dihydro-1H-indol-1-yl)-5-chloro-1-[(1S)-1-cyclopropylpropyl]-2(1H)-pyrazinone]"
9,156 to 158 °C,"CC[C@@H](C1CC1)n1cc(Cl)nc(N2CCc3cc(OC)cc(C)c32)c1=O (as salt: hydrochloride) [Example 516, 5-Chloro-1-[(1S)-1-cyclopropylpropyl]-3-(5-methoxy-7-methyl-2,3-dihydro-1H-indol-1-yl)-2(1H)-pyrazinone]"
10,102 to 104 °C,"CC[C@H](COC)n1cc(Cl)nc(N2CCc3cc(OC)cc(Br)c32)c1=O (as salt: hydrochloride) [Example 523, 3-(7-Bromo-5-methoxy-2,3-dihydro-1H-indol-1-yl)-5-chloro-1-[(1R)-1-(methoxymethyl)propyl]-2(1H)-pyrazinone]"
11,94 to 96 °C,COc1cc(C)c2c(c1)CCN2c1nc(Cl)cn(C(C(C)C)C(C)C)c1=O (as salt: hydrochloride) [Example 532]
12,126 to 128 °C,"CC[C@H](COC)n1cc(Cl)nc(N2CCc3cc(OC)cc(Cl)c32)c1=O (as salt: hydrochloride) [Example 544, 5-Chloro-3-(7-chloro-5-methoxy-2,3-dihydro-1H-indol-1-yl)-1-[(1R)-1-(methoxymethyl)propyl]-2(1H)-pyrazinone]"
